{"source": "patent US20220401369A1", "about": "“SOLID DISPERSION OF PAN-RAF KINASE INHIBITOR” (DAY ONE BIOPHARMACEUTICALS, INC., priority 2019, published 2022)", "key": {"[1]": {"experiment": "Polymer screening by DSC (miscibility of Compound 1 in polymer)", "assay_type": "physicochemical", "procedure": "Differential Scanning calorimetry (DSC) and Oil bath methods were applied to study solid dispersions comprising Compound 1. DSC is applied for the prediction of miscibility and solubility of Compound 1 in polymer.\nPure crystalline drug Compound 1 was physically mixed with each pure polymer. The equilibrium solution temperature (Tend) and Enthalpy (H) of Compound 1 in each 20% Compound 1 loaded physical mixture (PM) were measured for polymer screening by DSC (Discovery™ DSC, TA Instruments) with following steps;\n−20° C. to over MP (melting point) of Compound 1 (206° C.) @1° C./min\nFrom the endothermic peak of DSC, H and Tend were analyzed, and the change ratio A E between pure Compound 1 and PM was defined as miscibility parameters (Eq. 1). […] Therefore, the lower A E means the higher miscibility."}, "[2]": {"experiment": "Solubility (24 h, 37° C.) in JP1 and JP2", "assay_type": "physicochemical", "details": "thermodynamic from solid"}, "[3]": {"details": "20% Compound 1 loaded physical mixture with polymer, pure Compound 1 as reference"}}, "note": "Like-named read-outs stand apart in the source and are kept apart here."}
{"compound": "C[C@@H](NC(=O)c1ncnc(N)c1Cl)c1ncc(C(=O)Nc2cc(C(F)(F)F)c(Cl)cn2)s1", "note": "[Compound 1, (R)-2-(1-(6-amino-5-chloropyrimidine-4-carboxamido)ethyl)-N-(5-chloro-4-(trifluoromethyl)pyridin-2-yl)thiazole-5-carboxamide]", "values": [{"measurement": "DSC H (enthalpy)", "setting": "[1]; [3]", "result": 102.52, "unit": "J/g"}, {"measurement": "DSC Tend (equilibrium solution temperature)", "setting": "[1]; [3]", "result": 209.958, "unit": "°C"}, {"measurement": "DSC ΔE (miscibility parameter)", "setting": "[1]; 20% Compound 1 loaded physical mixture, lower ΔE means higher miscibility", "result": 2.00}, {"measurement": "solubility at 24 h", "setting": "[2]; aqueous buffer, JP2 (pH 6.8), Table 2, read-out: Solubility JP2", "result": 1.1, "unit": "µg/mL"}, {"measurement": "solubility at 24 h", "setting": "[2]; simulated gastric fluid, JP1 (pH 1.2), Table 2, read-out: Solubility JP1", "result": 3.4, "unit": "µg/mL"}]}
